Experiments:
Type in all cases: in vivo
wheat = test: Test Example 4: phytotoxicity to upland crop plants, treatment after emergence; conditions: dosage 5 kg/ha, sprayed after emergence, judged 14 days after treatment
Source text: (§1) Herbicidal Effect on Upland Weeds After Emergence Polyethylene-made vats having a size of 10 cm (length)×20 cm (width)×5 cm (height) were filled with soil, sown with seeds of the following noxious upland weeds and with seeds of soybean plant and wheat as upland crop plants, and then covered with soil. The plants were made to grow up until they reached the leaf-stages mentioned below, after which an agent comprising a prescribed concentration of a compound of the present invention (listed in Tables 1 to 14) as active ingredient was sprayed. Fourteen days after the treatment, the herbicidal effect was investigated, from which weed-killing rate was calculated in the same manner as in Test Example 1 and the results were judged. […] Sample weeds, their leaf stages, and leaf stages of soybean plant and wheat were as follows: [table]

soybean plant = test: as above; conditions: dosage 5 kg/ha, sprayed after emergence, judged 14 days after treatment
Source text: as §1

[1] = tested on: monochoria (Monochoria vaginalis Presl); test: Test Example 2: herbicidal effect on paddy field weeds after emergence; conditions: Dosage 5 kg/ha; one-leaved stage; 21 days after treatment
Method: (§2) Test for Herbicidal Effect on Paddy Field Weeds After Emergence. Soil was filled into 1/10000 are pots and brought into a state of paddy field, in which seeds of barnyard grass (Echinochloa crus-galli Beauv.), bulrush (Scirpus juncoides Roxb.) and monochoria (Monochoria vaginalis Presl) were made to reach one-leaved stage. The soil in the pots were treated with a solution containing a predetermined dosage of a chemical agent comprising a compound of the present invention listed in Tables 1 to 14. Twenty one days after the treatment, the herbicidal effect was investigated and the result was compared with that in untreated plot to calculate the weed-controlling rate, and the herbicidal effect was judged according to the same criterion as in Test Example 1.

[2] = tested on: bulrush (Scirpus juncoides Roxb.); test: as above; conditions: Dosage 5 kg/ha; one-leaved stage; 21 days after treatment
Method: as §2

[3] = tested on: barnyard grass (Echinochloa crus-galli Beauv.); test: as above; conditions: Dosage 5 kg/ha; one-leaved stage; 21 days after treatment
Method: as §2

[4] = tested on: forxtail grass (Alopecurus aequalis var. amurensis Ohwi), Am; test: Test Example 3: herbicidal effect on upland weeds before emergence; conditions: foxtail grass, dosage 5 kg/ha
Method: (§3) Herbicidal Effect on Upland Weeds Before Emergence […] Then, a liquid preparation of an agent comprising a prescribed concentration of a compound of the present invention (the compounds listed in Tables 1-14) as active ingredient was sprayed. Fourteen days after the treatment, the herbicidal effect was investigated, from which weed-killing rate was calculated in the same manner as in Test Example 1, and the herbicidal effect was judged.

[5] = tested on: bird's eye speedwell (Veronica persica Poir.), Vp; test: as above; conditions: dosage 5 kg/ha
Method: as §3

[6] = tested on: velvetleaf (Abutilon theophtasti L.), At; test: as above; conditions: dosage 5 kg/ha
Method: as §3

[7] = tested on: barnyard grass (Echinochloa crus-galli Beauv.), Ec; test: as above; conditions: dosage 5 kg/ha
Method: as §3

[8] = tested on: cleavers (Galium aparine L.), Ga; test: as above; conditions: dosage 5 kg/ha
Method: as §3

[9] = tested on: cocklebur (Xanthium strumarium L.), Xs; test: as above; conditions: dosage 5 kg/ha
Method: as §3

[10] = tested on: bulrush (Scirpus juncoides Roxb.); test: Test Example 1: herbicidal effect on paddy field weeds before emergence; conditions: Dosage 5 kg/ha
Method: as §2, with “Before Emergence” for “After Emergence.”, “Beauv.) and” for “Beauv.),”, “Roxb.)” for “Roxb.) and monochoria (Monochoria vaginalis Presl)”, “be before germination.” for “reach one-leaved stage.”, “investigated,” for “investigated and”, “following criterion: […]” for “same criterion as in Test Example 1.”

[11] = tested on: barnyard grass (Echinochloa crus-galli Beauv.); test: as above; conditions: Dosage 5 kg/ha
Method: as §2, with “Before Emergence” for “After Emergence.”, “Beauv.) and” for “Beauv.),”, “Roxb.)” for “Roxb.) and monochoria (Monochoria vaginalis Presl)”, “be before germination.” for “reach one-leaved stage.”, “investigated,” for “investigated and”, “following criterion: […]” for “same criterion as in Test Example 1.”

[12] = tested on: forxtail grass (Alopecurus aequalis var. amurensis Ohwi), Am; test: Test Example 4: herbicidal effect on upland weeds after emergence; conditions: dosage 5 kg/ha; sprayed after emergence; judged 14 days after treatment
Source text: as §1

[13] = tested on: bird's eye speedwell (Veronica persica Poir.), Vp; test: as above; conditions: dosage 5 kg/ha; sprayed after emergence; judged 14 days after treatment
Source text: as §1

[14] = tested on: velvetleaf (Abutilon theophtasti L.), At; test: as above; conditions: dosage 5 kg/ha; sprayed after emergence; judged 14 days after treatment
Source text: as §1

[15] = tested on: barnyard grass (Echinochloa crus-galli Beauv.), Ec; test: as above; conditions: dosage 5 kg/ha; sprayed after emergence; judged 14 days after treatment
Source text: as §1

[16] = tested on: cleavers (Galium aparine L.), Ga; test: as above; conditions: dosage 5 kg/ha; sprayed after emergence; judged 14 days after treatment
Source text: as §1

[17] = tested on: cocklebur (Xanthium strumarium L.), Xs; test: as above; conditions: dosage 5 kg/ha; sprayed after emergence; judged 14 days after treatment
Source text: as §1

wheat (Wh) = test: Test Example 3: phytotoxicity to upland crop plants, treatment before emergence; conditions: dosage 5 kg/ha
Method: (§4) Herbicidal Effect on Upland Weeds Before Emergence […] Then, a liquid preparation of an agent comprising a prescribed concentration of a compound of the present invention (the compounds listed in Tables 1-14) as active ingredient was sprayed. Fourteen days after the treatment, the herbicidal effect was investigated, from which weed-killing rate was calculated in the same manner as in Test Example 1, and the herbicidal effect was judged. At the same time, phytotoxicity to soybean plant and wheat was investigated and judged according to the criterion mentioned below.

soybean plant (So) = test: as above; conditions: dosage 5 kg/ha
Method: as §4

SMILES | Phytotoxicity Wh (wheat) | Phytotoxicity So (soybean plant) | Post-emergence treatment Monochoria (herbicidal effect) [1] | Post-emergence treatment Bulrush (herbicidal effect) [2] | Post-emergence treatment Barnyard grass (herbicidal effect) [3] | Herbicidal effect Am [4] | Herbicidal effect Vp [5] | Herbicidal effect At [6] | Herbicidal effect Ec [7] | Herbicidal effect Ga [8] | Herbicidal effect Xs [9] | Pre-emergence treatment Bulrush (herbicidal effect) [10] | Pre-emergence treatment Barnyard grass (herbicidal effect) [11] | Herbicidal effect Am [12] | Herbicidal effect Vp [13] | Herbicidal effect At [14] | Herbicidal effect Ec [15] | Herbicidal effect Ga [16] | Herbicidal effect Xs [17] | Phytotoxicity Wh (wheat (Wh)) | other results
CCc1ccc(Cl)c(CC)c1NC(=O)c1cc2ccccc2nc1C(=O)NC [359-1] | 2 (Crop-killing rate is 40-69%.) | 3 (Crop-killing rate is 70-89%.) | 5 (Weed-killing rate is 100%.) | 5 (Weed-killing rate is 100%.) | 5 (Weed-killing rate is 100%.) | 5 (Weed-killing rate is 100%.) | 5 (Weed-killing rate is 100%.) | 5 (Weed-killing rate is 100%.) | 5 (Weed-killing rate is 100%.) | 5 (Weed-killing rate is 100%.) | 5 (Weed-killing rate is 100%.) | 5 (Weed-killing rate is 100%.) | 5 (Weed-killing rate is 100%.) | 5 (Weed-killing rate is 100%.) | 5 (Weed-killing rate is 100%.) | 5 (Weed-killing rate is 100%.) | 5 (Weed-killing rate is 100%.) | 5 (Weed-killing rate is 100%.) | 5 (Weed-killing rate is 100%.) | 0 (Crop-killing rate is 0-20% (No Phytotoxicity).) | Phytotoxicity So (soybean plant (So)): 0 (Crop-killing rate is 0-20% (No Phytotoxicity).)
CCNC(=O)c1nc2ccccc2cc1C(=O)Nc1c(CC)ccc(Cl)c1CC [359-2] | 3 (Crop-killing rate is 70-89%.) | 4 (Crop-killing rate is 90-99%.) | 5 (Weed-killing rate is 100%.) | 5 (Weed-killing rate is 100%.) | 5 (Weed-killing rate is 100%.) | 5 (Weed-killing rate is 100%.) | 5 (Weed-killing rate is 100%.) | 5 (Weed-killing rate is 100%.) | 5 (Weed-killing rate is 100%.) | 5 (Weed-killing rate is 100%.) | 5 (Weed-killing rate is 100%.) | 5 (Weed-killing rate is 100%.) | 5 (Weed-killing rate is 100%.) | 5 (Weed-killing rate is 100%.) | 5 (Weed-killing rate is 100%.) | 5 (Weed-killing rate is 100%.) | 5 (Weed-killing rate is 100%.) | 5 (Weed-killing rate is 100%.) | 5 (Weed-killing rate is 100%.) | 0 (Crop-killing rate is 0-20% (No Phytotoxicity).) | Phytotoxicity So (soybean plant (So)): 1 (Crop-killing rate is 1-39%.)
CCCNC(=O)c1nc2ccccc2cc1C(=O)Nc1c(CC)ccc(Cl)c1CC [359-3] | 2 (Crop-killing rate is 40-69%.) | 3 (Crop-killing rate is 70-89%.) | 5 (Weed-killing rate is 100%.) | 5 (Weed-killing rate is 100%.) | 5 (Weed-killing rate is 100%.) | 5 (Weed-killing rate is 100%.) | 5 (Weed-killing rate is 100%.) | 5 (Weed-killing rate is 100%.) | 5 (Weed-killing rate is 100%.) | 5 (Weed-killing rate is 100%.) | 5 (Weed-killing rate is 100%.) | 5 (Weed-killing rate is 100%.) | 5 (Weed-killing rate is 100%.) | 5 (Weed-killing rate is 100%.) | 5 (Weed-killing rate is 100%.) | 5 (Weed-killing rate is 100%.) | 5 (Weed-killing rate is 100%.) | 5 (Weed-killing rate is 100%.) | 5 (Weed-killing rate is 100%.) | 0 (Crop-killing rate is 0-20% (No Phytotoxicity).) | Phytotoxicity So (soybean plant (So)): 0 (Crop-killing rate is 0-20% (No Phytotoxicity).)
CCc1ccc(Cl)c(CC)c1NC(=O)c1cc2ccccc2nc1C(=O)NC(C)(C)C [359-4] | 2 (Crop-killing rate is 40-69%.) | 4 (Crop-killing rate is 90-99%.) | 5 (Weed-killing rate is 100%.) | 5 (Weed-killing rate is 100%.) | 5 (Weed-killing rate is 100%.) | 5 (Weed-killing rate is 100%.) | 5 (Weed-killing rate is 100%.) | 5 (Weed-killing rate is 100%.) | 5 (Weed-killing rate is 100%.) | 5 (Weed-killing rate is 100%.) | 5 (Weed-killing rate is 100%.) | 5 (Weed-killing rate is 100%.) | 5 (Weed-killing rate is 100%.) | 5 (Weed-killing rate is 100%.) | 5 (Weed-killing rate is 100%.) | 5 (Weed-killing rate is 100%.) | 5 (Weed-killing rate is 100%.) | 5 (Weed-killing rate is 100%.) | 5 (Weed-killing rate is 100%.) | 0 (Crop-killing rate is 0-20% (No Phytotoxicity).) | Phytotoxicity So (soybean plant (So)): 2 (Crop-killing rate is 40-69%.)
